Measurements published in patent US12329741B2, “HBV inhibitor and its use” (priority 2019, dated 2025).
pEC50: −log10 of the molar value.

Columns and labels:
[1] = Cytotoxicity test (Cell-titer Blue method) in HepG2.2.15 cells; format: cell-based; conditions: human, six days after treatment, highest concentration tested 100 μM, read-out: HepG2.2.15 cell viability CC50
Excerpt: (§1) In this experiment, real-time fluorescent quantitative PCR (qPCR) method was used to detect the content of HBV DNA in the supernatant of HepG2.2.15 cells to determine the anti-hepatitis B virus activity of the compound in HepG2.2.15 cells, and to detect cell viability impact of the test compound against HepG2.2.15 by Cell-titer Blue method. In the experiment, entecavir (ETV) was used as a reference compound to monitor the quality of the experiment.
The compound concentration, plate layout, and compound treatment process are consistent with the antiviral experiments. In six days after the cells were treated with the compound, the cell viability was measured with Cell-titer Blue.
Analyze the data and calculate relative cell viability: Use the following formula to calculate the percentage of cell viability: % Cell viability=(sample fluorescence reading-fluorescence reading of culture medium control)/(fluorescence reading of DMSO control-fluorescence reading of the culture medium control)×100.
Finally, GraphPad Prism software was used to calculate the CC50 value of the compound.

hepatitis B virus (HBV) = experiment: Anti-hepatitis B virus activity: HBV DNA in supernatant of HepG2.2.15 cells by qPCR; format: cell-based; conditions: 192 h, supernatant collected on day 8
Excerpt: as §1
On day 1, the cells were planted into a 96-well plate, the compound was added to treat the cells on day 2, a new culture medium containing the compound was replaced on day 5, and the supernatant was collected on day 8 to extract DNA. Quantitative PCR was used to detect the content of HBV DNA. Both the test compound and the control compound were diluted in a series of 3 times with 8 concentration points, and 2 replicate wells were measured in parallel. The final concentration of DMSO in the culture medium is 0.5%.
The calculation formula of the inhibition percentage is as follows: % inh.=(1-HBV copy number of sample/HBV copy number of 0.5% DMSO control)×100
EC50 was analyzed by Graphpad Prism software (four parameter logistic equations).

With `Cc1c(C(=O)C(=O)NC(C)C(F)(F)F)c(C)n(C)c1C(=O)Nc1ccc2occc2c1` (stereo in doubt) [Compound 56, 1,3,5-Trimethyl-2-amide-N-(benzofuran-5-yl)-4-(2-((S)-1,1,1-trifluoropropane-2-Amino)-oxalyl)-pyrrole] as the compound, how does the CC50 at 6 days [1] read?
Its CC50 at 6 days is over 100 µM.

And the pEC50 (hepatitis B virus (HBV))?
The pEC50 was at least 7.30.

For `Cc1oc(C(=O)C(=O)NC(C)(C)C)cc1C(=O)Nc1ccc(F)c(Cl)c1` [Compound 1, 2-Methyl-3-amide-N-(3-chloro-4-fluorophenyl)-5-(2-tert-butylamino-oxalyl)-furan], which CC50 at 6 days [1] is on record?
Its CC50 at 6 days is over 100 µM.

What about the pEC50 (hepatitis B virus (HBV)) of the same compound?
The pEC50 was 5.30 to 6.30.

What does the source list for `C#CC(C)NC(=O)C(=O)c1cc(C(=O)Nc2ccc(F)c(Cl)c2)c(C)o1` (stereo not shown) [Compound 3, 2-Methyl-3-amide-N-(3-chloro-4-fluorophenyl)-5-(2-(1-methylpropynamido)-oxalyl)-furan]?
CC50 at 6 days [1]: > 100 µM; pEC50 (hepatitis B virus (HBV)): 5.30 to 6.30

With `C#CC(C)(C)NC(=O)C(=O)c1cc(C(=O)Nc2ccc(F)c(Cl)c2)c(C)o1` [Compound 4, 2-Methyl-3-amide-N-(3-chloro-4-fluorophenyl)-5-(2-(1,1-dimethylpropynamido)-oxalyl)-furan] as the compound, how does the CC50 at 6 days [1] read?
Its CC50 at 6 days is over 100 µM.

What about the pEC50 (hepatitis B virus (HBV)) of the same compound?
Its pEC50 is 5.30 to 6.30.

For `CC#CCNC(=O)C(=O)c1cc(C(=O)Nc2ccc(F)c(Cl)c2)c(C)o1` [Compound 5, 2-Methyl-3-amide-N-(3-chloro-4-fluorophenyl)-5-(2-(2-alkynylbutylamino)-oxalyl)-furan], which CC50 at 6 days [1] is on record?
Its CC50 at 6 days is over 100 µM.

What about the pEC50 (hepatitis B virus (HBV)) of the same compound?
The pEC50 was 4.30 to 5.30.

With `Cc1oc(C(=O)C(=O)NCC#CC(C)C)cc1C(=O)Nc1ccc(F)c(Cl)c1` [Compound 6, 2-Methyl-3-amide-N-(3-chloro-4-fluorophenyl)-5-(2-(4-methyl-2-ynylpentylamino)-oxalyl)-furan] as the compound, how does the CC50 at 6 days [1] read?
The CC50 at 6 days was 82 µM.

And the pEC50 (hepatitis B virus (HBV))?
Its pEC50 is 4.30 to 5.30.

Which results are given for `Cc1oc(C(=O)C(=O)NCC#Cc2ccccc2)cc1C(=O)Nc1ccc(F)c(Cl)c1` [Compound 7, 2-Methyl-3-amide-N-(3-chloro-4-fluorophenyl)-5-(2-(3-phenyl-2-eynylpropylamino)-oxalyl)-furan]?
CC50 at 6 days [1]: 29 µM; pEC50 (hepatitis B virus (HBV)): < 4.30

With `Cc1oc(C(=O)C(=O)Nc2ccccc2)cc1C(=O)Nc1ccc(F)c(Cl)c1` [Compound 9, 2-Methyl-3-amide-N-(3-chloro-4-fluorophenyl)-5-(2-anilino-oxalyl)-furan] as the compound, how does the CC50 at 6 days [1] read?
Its CC50 at 6 days is over 100 µM.

And the pEC50 (hepatitis B virus (HBV))?
Its pEC50 is 4.30 to 5.30.

With `C=CCn1cc(CNC(=O)C(=O)c2cc(C(=O)Nc3ccc(F)c(Cl)c3)c(C)o2)nn1` [Compound 10, 2-Methyl-3-amide-N-(3-chloro-4-fluorophenyl)-5-(2-(1-allyl-1H[1,2,3]-triazole-4-methylamino)-oxalyl)-furan] as the compound, how does the CC50 at 6 days [1] read?
Its CC50 at 6 days is over 100 µM.

What about the pEC50 (hepatitis B virus (HBV)) of the same compound?
The pEC50 was under 4.30.

With `Cc1oc(C(=O)C(=O)NC2(C(F)(F)F)CC2)cc1C(=O)Nc1ccc(F)c(Cl)c1` [Compound 16, 2-Methyl-3-amide-N-(3-chloro-4-fluorophenyl)-5-(2-(1-trifluoromethyl-cyclopropylamino)-oxalyl)-furan] as the compound, how does the CC50 at 6 days [1] read?
Its CC50 at 6 days is over 100 µM.

What about the pEC50 (hepatitis B virus (HBV)) of the same compound?
Its pEC50 is 6.30 to 7.30.

What does the source list for `Cc1oc(C(=O)C(=O)NCc2c[nH]nn2)cc1C(=O)Nc1ccc(F)c(Cl)c1` [Compound 17, 2-Methyl-3-amide-N-(3-chloro-4-fluorophenyl)-5-(2-(1H-1,2,3-triazole-4-methylamino)-oxalyl)-furan]?
CC50 at 6 days [1]: > 100 µM; pEC50 (hepatitis B virus (HBV)): 4.30 to 5.30

What does the source list for `Cc1oc(C(=O)C(=O)NC(C)(C)C)cc1C(=O)Nc1ccc(F)cc1` [Compound 18, 2-Methyl-3-amide-N-(4-fluorophenyl)-5-(2-tert-butylamino-oxalyl)-furan]?
CC50 at 6 days [1]: > 100 µM; pEC50 (hepatitis B virus (HBV)): 5.30 to 6.30

Which CC50 at 6 days [1] does the source give for `Cc1oc(C(=O)C(=O)NC(C)(C)C)cc1C(=O)Nc1ccc(F)c(F)c1` [Compound 19, 2-Methyl-3-amide-N-(3,4-difluorophenyl)-5-(2-tert-butylamino-oxalyl)-furan] here?
Its CC50 at 6 days is over 100 µM.

What about the pEC50 (hepatitis B virus (HBV)) of the same compound?
The pEC50 was 5.30 to 6.30.

Which results are given for `Cc1oc(C(=O)C(=O)NC(C)(C)C)cc1C(=O)Nc1cc(F)c(F)c(F)c1` [Compound 20, 2-Methyl-3-amide-N-(3,4,5-trifluorophenyl)-5-(2-tert-butylamino-oxalyl)-furan]?
CC50 at 6 days [1]: > 100 µM; pEC50 (hepatitis B virus (HBV)): 6.30 to 7.30

Which CC50 at 6 days [1] does the source give for `Cc1oc(C(=O)C(=O)NC(C)(C)C)cc1C(=O)Nc1ccc(F)c(C#N)c1` [Compound 21] here?
Its CC50 at 6 days is over 100 µM.

And the pEC50 (hepatitis B virus (HBV))?
Its pEC50 is 5.30 to 6.30.

Which CC50 at 6 days [1] does the source give for `Cc1oc(C(=O)C(=O)NC(C)(C)C)cc1C(=O)Nc1ccc(C(F)(F)F)cc1` [Compound 22, 2-Methyl-3-amide-N-(4-trifluoromethylphenyl)-5-(2-tert-butylamino-oxalyl)-furan] here?
Its CC50 at 6 days is over 100 µM.

And the pEC50 (hepatitis B virus (HBV))?
The pEC50 was under 4.30.

With `C#Cc1cc(NC(=O)c2cc(C(=O)C(=O)NC(C)(C)C)oc2C)ccc1F` [Compound 27, 2-Methyl-3-amide-N-(3-alkynyl-4-fluorophenyl)-5-(2-tert-butylamino-oxalyI)-furan] as the compound, how does the CC50 at 6 days [1] read?
Its CC50 at 6 days is over 100 µM.

And the pEC50 (hepatitis B virus (HBV))?
The pEC50 was 4.30 to 5.30.

Which CC50 at 6 days [1] does the source give for `C#Cc1cccc(NC(=O)c2cc(C(=O)C(=O)NC(C)(C)C)oc2C)c1` [Compound 28, 2-Methyl-3-amide-N-(3-alkynylphenyl)-5-(2-tert-butylamino-oxalyl)-furan] here?
The CC50 at 6 days was over 100 µM.

What about the pEC50 (hepatitis B virus (HBV)) of the same compound?
Its pEC50 is 4.30 to 5.30.

Which results are given for `Cc1sc(C(=O)C(=O)NC(C)(C)C)cc1C(=O)Nc1ccc(F)c(Cl)c1` [Compound 29, 2-Methyl-3-amide-N-(3-chloro-4-fluorophenyl)-5-(2-tert-butylamino-oxalyl)-thiophene]?
CC50 at 6 days [1]: > 100 µM; pEC50 (hepatitis B virus (HBV)): 6.30 to 7.30

What does the source list for `C#CCNC(=O)C(=O)c1cc(C(=O)Nc2ccc(F)c(Cl)c2)c(C)s1` [Compound 30, 2-Methyl-3-amide-N-(3-chloro-4-fluorophenyl)-5-(2-propargylamino-oxalyl)-thiophene]?
CC50 at 6 days [1]: > 100 µM; pEC50 (hepatitis B virus (HBV)): 5.30 to 6.30

Which results are given for `Cc1sc(C(=O)C(=O)NC(C)(C)C)cc1C(=O)Nc1ccc(F)c(F)c1` [Compound 34, 2-Methyl-3-amide-N-(3,4-difluorophenyl)-5-(2-tert-butylamino-oxalyl)-thiophene]?
CC50 at 6 days [1]: > 100 µM; pEC50 (hepatitis B virus (HBV)): 6.30 to 7.30

For `Cc1sc(C(=O)C(=O)NC(C)(C)C)cc1C(=O)Nc1cc(F)c(F)c(F)c1` [Compound 35, 2-Methyl-3-amide-N-(3,4,5-trifluorophenyl)-5-(2-tert-butylamino-oxalyl)-thiophene], which CC50 at 6 days [1] is on record?
Its CC50 at 6 days is over 100 µM.

And the pEC50 (hepatitis B virus (HBV))?
The pEC50 was 5.30 to 6.30.

With `C#CC(C)(C)NC(=O)C(=O)c1sc(C)c(C(=O)Nc2ccc(F)c(Cl)c2)c1C` [Compound 38, 2,4-Dimethyl-3-amide-N-(3-chloro-4-fluorophenyl)-5-(2-(1,1-dimethylpropynamido)-oxalyl)-thiophene] as the compound, how does the CC50 at 6 days [1] read?
Its CC50 at 6 days is over 100 µM.

And the pEC50 (hepatitis B virus (HBV))?
The pEC50 was at least 7.30.

Which CC50 at 6 days [1] does the source give for `C#CC(C)(C)NC(=O)C(=O)c1sc(C)c(C(=O)Nc2ccc3occc3c2)c1C` [Compound 39, 2,4-Dimethyl-3-amide-N-(benzofuran-5-yl)-5-(2-(1,1-dimethylpropynamido)-oxalyl)-Thiophene] here?
Its CC50 at 6 days is over 100 µM.

What about the pEC50 (hepatitis B virus (HBV)) of the same compound?
Its pEC50 is at least 7.30.

Which CC50 at 6 days [1] does the source give for `COCC1(NC(=O)C(=O)c2sc(C)c(C(=O)Nc3ccc4occc4c3)c2C)COC1` [Compound 41] here?
Its CC50 at 6 days is over 100 µM.

And the pEC50 (hepatitis B virus (HBV))?
The pEC50 was at least 7.30.

With `CC(C)(C)NC(=O)C(=O)c1cc(C(=O)Nc2ccc(F)cc2)c(C(C)(C)C)o1` [Compound 43, 2-tert-Butyl-3-amide-N-(4-fluorophenyl)-5-(2-tert-butylamino-oxalyl)-furan] as the compound, how does the CC50 at 6 days [1] read?
Its CC50 at 6 days is over 100 µM.

And the pEC50 (hepatitis B virus (HBV))?
Its pEC50 is 4.30 to 5.30.

With `CC(C)(C)NC(=O)C(=O)c1nc(C(=O)Nc2ccc(F)c(Cl)c2)cs1` [Compound 44, 2-(2-Tert-Butylamino-oxalyl)-4-amide-N-(3-chloro-4-fluoro-phenyl)-thiazole] as the compound, how does the CC50 at 6 days [1] read?
The CC50 at 6 days was 28 µM.

And the pEC50 (hepatitis B virus (HBV))?
Its pEC50 is under 4.30.

With `Cc1oc(C(=O)C(=O)NC(C)(C)C)c(Cl)c1C(=O)Nc1cc(F)c(F)c(F)c1` [Compound 49, 2-Methyl-3-amide-N-(3,4,5-trifluorophenyl)-4-chloro-5-(2-tert-butylamino-oxalyl)-furan] as the compound, how does the CC50 at 6 days [1] read?
The CC50 at 6 days was 47 µM.

And the pEC50 (hepatitis B virus (HBV))?
Its pEC50 is 4.30 to 5.30.

With `C#CC1(NC(=O)C(=O)c2c(C)c(C(=O)Nc3ccc4occc4c3)n(C)c2C)CC1` [Compound 55, 1,3,5-Trimethyl-2-amide-N-(benzofuran-5-yl)-4-(2-(1-ethynylcyclopropane-1-amino)-oxalyl)-Pyrrole] as the compound, how does the CC50 at 6 days [1] read?
Its CC50 at 6 days is over 100 µM.

What about the pEC50 (hepatitis B virus (HBV)) of the same compound?
Its pEC50 is at least 7.30.

Which results are given for `Cc1c(C(=O)C(=O)NC2(C)COC2)c(C)n(C)c1C(=O)Nc1ccc2occc2c1` [Compound 57, 1,3,5-Trimethyl-2-amide-N-(benzofuran-5-yl)-4-(2-(3-methyl-3-oxetanino)-oxalyl)-pyrrole]?
CC50 at 6 days [1]: > 100 µM; pEC50 (hepatitis B virus (HBV)): ≥ 7.30

Which CC50 at 6 days [1] does the source give for `Cc1c(C(=O)C(=O)NC2CCCC2)c(C)n(C)c1C(=O)Nc1ccc2occc2c1` [Compound 58, 1,3,5-Trimethyl-2-amide-N-(benzofuran-5-yl)-4-(2-cyclopentylamino-oxalyl)-pyrrole] here?
The CC50 at 6 days was over 100 µM.

What about the pEC50 (hepatitis B virus (HBV)) of the same compound?
Its pEC50 is at least 7.30.

For `Cc1c(C(=O)C(=O)Nc2nccs2)c(C)n(C)c1C(=O)Nc1ccc2occc2c1` [Compound 59, 1,3,5-Trimethyl-2-amide-N-(benzofuran-5-yl)-4-(2-(thiazol-2-amino)-oxalyl)-pyrrole], which CC50 at 6 days [1] is on record?
The CC50 at 6 days was over 100 µM.

What about the pEC50 (hepatitis B virus (HBV)) of the same compound?
Its pEC50 is at least 7.30.
